According to paper PMC10227065, “Structures of Tetrahymena thermophila respiratory megacomplexes on the tubular mitochondrial cristae” (Nature Communications, 2023):

Key:
[1] = target: T1, Tt-CII (SDHA/SDHB hydrophilic head) (Tetrahymena thermophila, UniProt Q23DI3); experiment: cryo-EM structure; format: binding
T1 construct: gene TTHERM_00047080

NDUA9 (Tt-CI subunit) = target: T2, NDUA9 (Tt-CI subunit) (Tetrahymena thermophila, UniProt I7MLH2); experiment: cryo-EM structure; format: binding; details: printed only as NDP group (PDB ligand code)
T2 construct: gene TTHERM_00557760
T2 sequence (I7MLH2 27-362): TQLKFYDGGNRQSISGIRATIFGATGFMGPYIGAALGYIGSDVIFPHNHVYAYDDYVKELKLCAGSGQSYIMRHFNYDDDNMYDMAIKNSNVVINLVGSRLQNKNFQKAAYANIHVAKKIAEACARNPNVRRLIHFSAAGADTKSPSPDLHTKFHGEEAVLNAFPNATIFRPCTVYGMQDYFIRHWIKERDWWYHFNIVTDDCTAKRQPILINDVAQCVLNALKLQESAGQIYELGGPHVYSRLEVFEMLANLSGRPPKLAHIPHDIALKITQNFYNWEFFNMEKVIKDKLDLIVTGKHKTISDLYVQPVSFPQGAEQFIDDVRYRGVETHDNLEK
Excerpt: cryo-EM structure on NDUA9 (Tt-CI subunit) | NDP group of NDUA9 and the interfacial heme […]1

[2] = target: T1, Tt-CII (SDHA/SDHB hydrophilic head); experiment: cyt c reduction/oxidation, […] nm; format: biochemical; details: 5 mM malonate; 5 mM succinate, 50 uM decylubiquinone, 100 uM Tt-cyt c, 10 nM megacomplex, pH 7.4, 0.1% digitonin, room temperature

T1 sequence (Q23DI3 1-636): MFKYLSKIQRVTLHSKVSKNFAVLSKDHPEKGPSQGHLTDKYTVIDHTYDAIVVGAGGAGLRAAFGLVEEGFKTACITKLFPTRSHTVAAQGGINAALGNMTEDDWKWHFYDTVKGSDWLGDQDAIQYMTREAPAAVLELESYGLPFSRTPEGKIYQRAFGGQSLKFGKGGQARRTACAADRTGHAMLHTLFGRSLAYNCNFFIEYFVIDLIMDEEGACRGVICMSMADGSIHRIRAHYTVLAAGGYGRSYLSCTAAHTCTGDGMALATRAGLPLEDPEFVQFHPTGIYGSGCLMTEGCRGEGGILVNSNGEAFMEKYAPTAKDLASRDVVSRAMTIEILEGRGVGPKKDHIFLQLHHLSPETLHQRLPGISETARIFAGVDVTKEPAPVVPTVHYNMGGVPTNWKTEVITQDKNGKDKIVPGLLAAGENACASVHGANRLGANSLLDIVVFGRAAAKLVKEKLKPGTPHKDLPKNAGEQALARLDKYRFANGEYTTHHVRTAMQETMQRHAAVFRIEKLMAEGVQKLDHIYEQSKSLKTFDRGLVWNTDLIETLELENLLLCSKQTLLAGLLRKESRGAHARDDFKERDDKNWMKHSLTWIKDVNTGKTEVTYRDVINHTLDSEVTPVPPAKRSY
T1 sequence (I7M403 21-312 partner): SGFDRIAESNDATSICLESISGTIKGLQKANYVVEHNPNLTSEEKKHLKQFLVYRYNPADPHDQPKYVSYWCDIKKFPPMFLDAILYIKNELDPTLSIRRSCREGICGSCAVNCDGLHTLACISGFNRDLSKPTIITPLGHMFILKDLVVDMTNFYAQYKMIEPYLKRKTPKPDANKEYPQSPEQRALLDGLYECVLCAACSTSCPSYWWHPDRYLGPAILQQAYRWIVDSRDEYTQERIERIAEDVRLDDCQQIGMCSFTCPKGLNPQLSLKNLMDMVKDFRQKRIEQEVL

With `Cc1cc2nc3c(=O)[nH]c(=O)nc-3n(C[C@H](O)[C@H](O)[C@H](O)COP(=O)(O)OP(=O)(O)OC[C@H]3O[C@@H](n4cnc5c(N)ncnc54)[C@H](O)[C@@H]3O)c2cc1C` [FAD] the cryo-EM structure [1] was “highly conserved to known CII structures with the FAD and three iron-sulfur clusters in place”.
In the case of `NC(=O)C1=CN([C@@H]2O[C@H](COP(=O)(O)OP(=O)(O)OC[C@H]3O[C@@H](n4cnc5c(N)ncnc54)[C@H](OP(=O)(O)O)[C@@H]3O)[C@@H](O)[C@H]2O)C=CC1` [NDP], the cryo-EM structure (NDUA9 (Tt-CI subunit)) is reported as “NDP group of NDUA9 and the interfacial heme c SDHTT1”.
`O=C(O)CC(=O)O` [malonate] was tested, and the “cyt c reduction/oxidation, 550 nm” value [2] was “NADH and succinate-dependent activities could be inhibited by CI inhibitor rotenone and CII inhibitor malonate”.
